In this experiment the target is T1, full length SGK1 (Homo sapiens, UniProt O00141).
T1 construct: 125 μM full length SGK1 (Life Technologies Part #PR7358A); purchased Life Technologies PR7358A
T1 sequence (O00141 1-431): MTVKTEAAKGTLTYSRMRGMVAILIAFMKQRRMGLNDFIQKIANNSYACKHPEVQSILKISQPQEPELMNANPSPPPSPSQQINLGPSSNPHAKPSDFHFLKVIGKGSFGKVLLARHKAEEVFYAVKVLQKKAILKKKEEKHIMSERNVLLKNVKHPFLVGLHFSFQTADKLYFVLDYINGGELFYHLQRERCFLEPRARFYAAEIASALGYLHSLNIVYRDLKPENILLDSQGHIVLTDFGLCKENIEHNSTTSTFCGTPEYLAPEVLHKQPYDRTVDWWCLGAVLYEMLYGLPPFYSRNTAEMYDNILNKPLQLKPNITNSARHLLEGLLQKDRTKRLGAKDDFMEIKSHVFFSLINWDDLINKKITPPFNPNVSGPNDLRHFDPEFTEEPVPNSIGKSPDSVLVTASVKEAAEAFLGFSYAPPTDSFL
Description: SGK1 inhibition Assay A (Caliper LabChip electrophoretic separation of fluorescent peptide substrate and phosphorylated product). Format: biochemical. Conditions: Assay A; 20 μM ATP, 40 min incubation; read-out: SGK1 IC50.

Molecules are shown by their SMILES.

In general, IC50 refers to the midpoint of a concentration-inhibition curve. Consider `CC(=O)N1CC=C(c2cc(N3CCC[C@@H](NC(=O)c4sc(Cl)cc4OCCN4CCC(C)(N)CC4)C3)c3c(N)ncnn23)C1` [Example 300, (R)-N-(1-(7-(1-acetyl-2,5-dihydro-1H-pyrrol-3-yl)-4-aminopyrrolo[2,1-f][1,2,4]triazin-5-yl)piperidin-3-yl)-3-(2-(4-amino-4-methylpiperidin-1-yl)ethoxy)-5-chlorothiophene-2-carboxamide], for which the IC50 worked out at 1 nM.
As for `CC(=O)N1CC=C(c2cc(N3CCC[C@@H](NC(=O)c4sc(Cl)cc4OCCNCC(F)F)C3)c3c(N)ncnn23)C1` [Example 301, (R)-N-(1-(7-(1-acetyl-2,5-dihydro-1H-pyrrol-3-yl)-4-aminopyrrolo[2,1-f][1,2,4]triazin-5-yl)piperidin-3-yl)-5-chloro-3-(2-((2,2-difluoroethyl)amino)ethoxy)thiophene-2-carboxamide], the figure is 14 nM; as for `CN(C)CCOc1cc(C(F)F)sc1C(=O)N[C@@H]1CCCN(c2cc(-c3ccc(C(N)=O)c(F)c3)n3ncnc(N)c23)C1` [Example 302, (R)—N-(1-(4-amino-7-(4-carbamoyl-3-fluorophenyl)pyrrolo[2,1-f][1,2,4]triazin-5-yl)piperidin-3-yl)-5-(difluoromethyl)-3-(2-(dimethylamino)ethoxy)thiophene-2-carboxamide], 4 nM.
For the compound `COC(=O)N1CC=C(c2cc(N3CCC[C@@H](NC(=O)c4sc(C(F)F)cc4OCCN(C)C)C3)c3c(N)ncnn23)C1` [Example 303, Methyl (R)-3-(4-amino-5-(3-(5-(difluoromethyl)-3-(2-(dimethylamino)ethoxy)thiophene-2-carboxamido)piperidin-1 - yl)pyrrolo [2,1-f][1,2,4]triazin-7-yl)-2,5-dihydro-1H-pyrrole-1-carboxylate], the IC50 is 10 nM.
On to `CN(C)CCOc1cc(C(F)F)sc1C(=O)N[C@@H]1CCCN(c2cc(-c3ccnc(N)c3)n3ncnc(N)c23)C1` [Example 304, (R)-N-(1-(4-amino-7-(2-aminopyridin-4-yl)pyrrolo [2,1-f][1,2,4]triazin-5-yl)piperidin-3-yl)-5-(difluoromethyl)-3-(2-(dimethylamino)ethoxy) thiophene-2-carboxamide], for which the IC50 came out at 3 nM.
As for `CC(=O)N1CC=C(c2cc(N3CCC[C@@H](NC(=O)c4sc(C(F)F)cc4OCCN(C)C)C3)c3c(N)ncnn23)C1` [Example 305, (R)-N-(1-(7-(1-acetyl-2,5-dihydro-1H-pyrrol-3-yl)-4-aminopyrrolo[2,1-f][1,2,4]triazin-5-yl)piperidin-3-yl)-5-(difluoromethyl)-3-(2-(dimethylamino)ethoxy)thiophene-2-carboxamide], the figure is 15 nM; as for `CN(C)CCOc1cc(C(F)F)sc1C(=O)N[C@@H]1CCCN(c2cc(-c3ccc(C(N)=O)nc3)n3ncnc(N)c23)C1` [Example 306, (R)-5-(4-amino-5-(3-(5-(difluoromethyl)-3-(2-(dimethylamino)ethoxy)thiophene-2-carboxamido)piperidin-1-yl)pyrrolo[2,1-f] [1,2,4]triazin-7-yl)picolinamide], 11 nM.
As for `CN(C)CCOc1cc(C(F)F)sc1C(=O)N[C@@H]1CCCN(c2cc(-c3cncnc3)n3ncnc(N)c23)C1` [Example 307, (R)-N-(1-(4-amino-7-(pyrimidin-5-yl)pyrrolo[2,1-f] [1,2,4]triazin-5-yl)piperidin-3-yl)-5-(difluoromethyl)-3-(2-(dimethylamino)ethoxy)thiophene-2-carboxamide], the figure is 27 nM; as for `CN(C)CCOc1cc(C(F)F)sc1C(=O)N[C@@H]1CCCN(c2cc(-c3ccc(C=O)cc3)n3ncnc(N)c23)C1` [Example 308, (R)-N-(1-(4-amino-7-(4-formylphenyl)pyrrolo[2,1-f][1,2,4]triazin-5-yl)piperidin-3-yl)-5-(difluoromethyl)-3-(2-(dimethylamino)ethoxy)thiophene-2-carboxamide], 1 nM; as for `CN(C)CCOc1cc(C(F)F)sc1C(=O)N[C@@H]1CCCN(c2cc(-c3ccc(=O)n(CC(F)F)c3)n3ncnc(N)c23)C1` [Example 309, (R)-N-(1-(4-amino-7-(1-(2,2-difluoroethyl)-6-oxo-1,6-dihydropyridin-3-yl)pyrrolo[2,1-f][1,2,4]triazin-5-yl)piperidin-3-yl)-5-(difluoromethyl)-3-(2-(dimethylamino)ethoxy)thiophene-2-carboxamide], 17 nM.
Consider `CN(C)CCOc1cc(C(F)F)sc1C(=O)N[C@@H]1CCCN(c2cc(-c3ccc(C#N)nc3)n3ncnc(N)c23)C1` [Example 310, (R)-N-(1-(4-amino-7-(6-cyanopyridin-3-yl)pyrrolo[2,1-f] [1,2,4]triazin-5-yl)piperidin-3-yl)-5-(difluoromethyl)-3-(2-(dimethylamino)ethoxy)thiophene-2-carboxamide], for which the half-inhibitory concentration (IC50) is 3 nM.
Under `Cc1cc(-c2cc(N3CCC[C@@H](NC(=O)c4sc(C(F)F)cc4OCCN(C)C)C3)c3c(N)ncnn23)cc(C(F)F)n1` [Example 312, (R)-N-(1-(4-amino-7-(2-(difluoromethyl)-6-methylpyridin-4-yl)pyrrolo[2,1-f] [1,2,4]triazin-5-yl)piperidin-3-yl)-5-(difluoromethyl)-3-(2-(dimethylamino)ethoxy)thiophene-2-carboxamide] stands 32 nM; under `CN(C)CCOc1cc(C(F)F)sc1C(=O)N[C@@H]1CCCN(c2cc(-c3ccc(C#N)c(F)c3)n3ncnc(N)c23)C1` [Example 313], 4 nM.
Under `Nc1ncnn2c(-c3cncnc3)cc(N3CCC[C@@H](NC(=O)c4sc(C(F)F)cc4N4CC5(COC5)C4)C3)c12` [Example 314, (R)—N-(1-(4-amino-7-(pyrimidin-5-yl)pyrrolo[2,1-f][1,2,4]triazin-5-yl)piperidin-3-yl)-5-(difluoromethyl)-3-(2-oxa-6-azaspiro[3.3]heptan-6-yl)thiophene-2-carboxamide] stands 374 nM; under `CC(=O)N1CC=C(c2cc(N3CCC[C@@H](NC(=O)c4sc(C(F)F)cc4N4CC5(COC5)C4)C3)c3c(N)ncnn23)C1` [Example 315, (R)-N-(1-(7-(1-acetyl-2,5-dihydro-1H-pyrrol-3-yl)-4-aminopyrrolo[2,1-f][1,2,4]triazin-5-yl)piperidin-3-yl)-5-(difluoromethyl)-3-(2-oxa-6-azaspiro[3.3]heptan-6-yl)thiophene-2-carboxamide], 65 nM; under `Nc1ncnn2c(-c3ccc(=O)n(CC(F)F)c3)cc(N3CCC[C@@H](NC(=O)c4sc(C(F)F)cc4N4CC5(COC5)C4)C3)c12` [Example 316, (R)-N-(1-(4-amino-7-(1-(2,2-difluoroethyl)-6-oxo-1,6-dihydropyridin-3-yl)pyrrolo[2,1-f][1,2,4]triazin-5-yl)piperidin-3-yl)-5-(difluoromethyl)-3-(2-oxa-6-azaspiro[3.3]heptan-6-yl)thiophene-2-carboxamide], 31 nM.
As for `COC(=O)N1CC=C(c2cc(N3CCC[C@@H](NC(=O)c4sc(C(F)F)cc4N4CC5(COC5)C4)C3)c3c(N)ncnn23)C1` [Example 317, Methyl (R)-3-(4-amino-5-(3-(5-(difluoromethyl)-3-(2-oxa-6-azaspiro[3.3]heptan-6-yl)thiophene-2-carboxamido)piperidin-1-yl)pyrrolo[2,1-f][1,2,4]triazin-7-yl)-2,5-dihydro-1H-pyrrole-1-carboxylate], the figure is 34 nM; as for `N#Cc1ccc(-c2cc(N3CCC[C@@H](NC(=O)c4sc(C(F)F)cc4N4CCOCC4)C3)c3c(N)ncnn23)cn1` [Example 318, (R)—N-(1-(4-amino-7-(6-cyanopyridin-3-yl)pyrrolo[2,1-f][1,2,4]triazin-5-yl)piperidin-3-yl)-5-(difluoromethyl)-3-morpholinothiophene-2-carboxamide], 15 nM; as for `CC(=O)N1CC=C(c2cc(N3CCC[C@@H](NC(=O)c4sc(C(F)F)cc4N4CCOCC4)C3)c3c(N)ncnn23)C1` [Example 319, (R)-N-(1-(7-(1-acetyl-2,5-dihydro-1H-pyrrol-3-yl)-4-aminopyrrolo[2,1-f][1,2,4]triazin-5-yl)piperidin-3-yl)-5-(difluoromethyl)-3-morpholinothiophene-2-carboxamide], 11 nM.
In the case of `COC(=O)N1CC=C(c2cc(N3CCC[C@@H](NC(=O)c4sc(C(F)F)cc4N4CCOCC4)C3)c3c(N)ncnn23)C1` [Example 321, Methyl (R)-3-(4-amino-5-(3-(5-(difluoromethyl)-3-morpholinothiophene-2-carboxamido)piperidin-1-yl)pyrrolo[2,1-f][1,2,4]triazin-7-yl)-2,5-dihydro-1H-pyrrole-1-carboxylate], the IC50 is 13 nM.
Turning to `CC(=O)N1CC=C(c2cc(N3CCC[C@@H](NC(=O)c4sc(C(F)F)cc4C4=CCN(C)CC4)C3)c3c(N)ncnn23)C1` [Example 322, (R)—N-(1-(7-(1-acetyl-2,5-dihydro-1H-pyrrol-3-yl)-4-aminopyrrolo[2,1-f][1,2,4]triazin-5-yl)piperidin-3-yl)-5-(difluoromethyl)-3-(1-methyl-1,2,3,6-tetrahydropyridin-4-yl)thiophene-2-carboxamide], the IC50 worked out at 96 nM.
As for `CN1CC=C(c2cc(C(F)F)sc2C(=O)N[C@@H]2CCCN(c3cc(-c4ccc(C(N)=O)c(F)c4)n4ncnc(N)c34)C2)CC1` [Example 323, (R)—N-(1-(4-amino-7-(4-carbamoyl-3-fluorophenyl)pyrrolo[2,1-f][1,2,4]triazin-5-yl)piperidin-3-yl)-5-(difluoromethyl)-3-(1-yl)-5-(difluoromethyl)-3-(1-methyl-1,2,3,6-tetrahydropyridin-4-yl)thiophene-2-carboxamide], the figure is 19 nM.

The record behind these values is patent US20260250290A1 (BRISTOL-MYERS SQUIBB COMPANY, priority 2023, published 2026).
